From PubChem BioAssay AID330 (DTP/NCI, 2004)
Values joined by “and” are separate entries in the source; they are usually repeats but may differ in a detail not shown here. Equal values may be shown once. Inconclusive results and toxic doses are left out. The calls were made as follows: active = survival T/C of 150% or more; inactive = T/C below 125% in these data.

Tested on: P388 leukemia ip, CD2F1 mice, survival T/C
Experiment: NCI In Vivo Anticancer Drug Screen. Data for tumor model P388 Leukemia (intraperitoneal) in CD2F1 (CDF1) mice
Settings: endpoint: median survival time, higher = longer survival
Method in brief: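 Mice carrying the transplanted tumor received test compound or vehicle. Survival was recorded in each group, and the value is the treated-group measurement divided by that of the vehicle-treated control group.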

[1] = dose: 50.0 mg/kg/injection, schedule: Q01DX005 (ip), vehicle: Klucel (hydroxypropylcellulose) (HPC)
[2] = dose: 100.0 mg/kg/injection, schedule: Q01DX005 (ip), vehicle: Klucel (hydroxypropylcellulose) (HPC)
[3] = dose: 200.0 mg/kg/injection, schedule: Q01DX005 (ip), vehicle: Klucel (hydroxypropylcellulose) (HPC)
[4] = dose: 15.0 mg/kg/injection, schedule: Q01DX005 (ip), vehicle: saline
[5] = dose: 30.0 mg/kg/injection, schedule: Q01DX005 (ip), vehicle: saline
[6] = dose: 6.25 mg/kg/injection, schedule: Q01DX009 (ip), vehicle: saline with Tween-80
[7] = dose: 12.5 mg/kg/injection, schedule: Q01DX009 (ip), vehicle: saline with Tween-80
[8] = dose: 25.0 mg/kg/injection, schedule: Q01DX009 (ip), vehicle: saline with Tween-80
[9] = dose: 100.0 mg/kg/injection, schedule: Q01DX009 (ip), vehicle: saline with Tween-80
[10] = dose: 200.0 mg/kg/injection, schedule: Q01DX009 (ip), vehicle: saline with Tween-80
[11] = dose: 400.0 mg/kg/injection, schedule: Q01DX009 (ip), vehicle: saline with Tween-80
[12] = dose: 60.0 mg/kg/injection, schedule: Q01DX005 (ip), vehicle: saline
[13] = dose: 100.0 mg/kg/injection, schedule: Q04DX002 (ip), vehicle: saline with Tween-80
[14] = dose: 200.0 mg/kg/injection, schedule: Q04DX002 (ip), vehicle: saline with Tween-80
[15] = dose: 400.0 mg/kg/injection, schedule: Q04DX002 (ip), vehicle: saline with Tween-80

Measured: T/C

COc1ccccc1/C=C/C(=O)c1ccccc(=O)c1O
inactive: dose: 25.0 mg/kg/injection, schedule: Q01DX005 (ip), vehicle: Klucel (hydroxypropylcellulose) (HPC) 101 % of control | [1] 104 % of control | [2] 100 % of control | [3] 109 % of control

CCc1nnc(NC(=S)NC(=O)OC)s1
inactive: dose: 25.0 mg/kg/injection, schedule: Q04DX003 (ip), vehicle: saline with Tween-80 100 % of control | dose: 50.0 mg/kg/injection, schedule: Q04DX003 (ip), vehicle: saline with Tween-80 105 % of control | dose: 100.0 mg/kg/injection, schedule: Q04DX003 (ip), vehicle: saline with Tween-80 105 % of control

CCn1nccc1N
inactive: dose: 6.25 mg/kg/injection, schedule: Q01DX005 (ip), vehicle: saline with Tween-80 98 % of control | dose: 12.5 mg/kg/injection, schedule: Q01DX005 (ip), vehicle: saline with Tween-80 106 % of control | dose: 25.0 mg/kg/injection, schedule: Q01DX005 (ip), vehicle: saline with Tween-80 104 % of control

Cc1c(O)c(=O)ccn1CCCl
inactive: dose: 50.0 mg/kg/injection, schedule: Q01DX005 (ip), vehicle: saline 104 % of control and 107 % of control | dose: 100.0 mg/kg/injection, schedule: Q01DX005 (ip), vehicle: saline 106 % of control and 107 % of control | dose: 200.0 mg/kg/injection, schedule: Q01DX005 (ip), vehicle: saline 109 % of control and 116 % of control

NC(CCC(N)C(=O)c1ccccc1)C(=O)c1ccccc1 (configuration not stated)
inactive: dose: 60.0 mg/kg/injection, schedule: Q01DX005 (ip), vehicle: saline with Tween-80 98 % of control | dose: 120.0 mg/kg/injection, schedule: Q01DX005 (ip), vehicle: saline with Tween-80 101 % of control | dose: 240.0 mg/kg/injection, schedule: Q01DX005 (ip), vehicle: saline with Tween-80 93 % of control

c1cc2n[pH]nc2cn1 (configuration not stated)
inactive: [4] 120 % of control | [5] 107 % of control

O=P1(N(CCCl)CCCl)Nc2cc3ccccc3cc2N1
inactive: dose: 3.13 mg/kg/injection, schedule: Q01DX009 (ip), vehicle: saline with Tween-80 103 % of control | [6] 96 % of control | [7] 99 % of control | [8] 100 % of control

CCOC(=O)Cc1cccc(C)n1
inactive: [9] 100 % of control | [10] 109 % of control | [11] 104 % of control

NNP(=O)(NN)C(Cl)(Cl)Cl
inactive: [4] 101 % of control | [5] 100 % of control | [12] 108 % of control and 114 % of control

CC(=O)OC1=CC(OC(C)=O)C2C(=O)C3=C(C(=O)c4ccccc4C3=O)C(=O)C2C1 (configuration not stated)
inactive: dose: 100.0 mg/kg/injection, schedule: Q01DX001 (ip), vehicle: Klucel (hydroxypropylcellulose) (HPC) 105 % of control | dose: 200.0 mg/kg/injection, schedule: Q01DX001 (ip), vehicle: Klucel (hydroxypropylcellulose) (HPC) 102 % of control | dose: 400.0 mg/kg/injection, schedule: Q01DX001 (ip), vehicle: Klucel (hydroxypropylcellulose) (HPC) 93 % of control

O=C(N=C(Oc1ccccc1)Oc1ccccc1)N=C(Oc1ccccc1)Oc1ccccc1
inactive: [1] 94 % of control | [2] 88 % of control | [3] 91 % of control

CN1c2ccccc2C(C)(C)C12Cc1c(N)ncc(C#N)c1N2 (configuration not stated)
inactive: dose: 50.0 mg/kg/injection, schedule: Q01DX009 (ip), vehicle: saline with Tween-80 91 % of control | [9] 88 % of control | [10] 93 % of control

ClC1=NC(Cl)C(Cl)=N/C1=N\c1ncn[nH]1 (configuration not stated)
inactive: dose: 4.4 mg/kg/injection, schedule: Q04DX003 (ip), vehicle: saline with Tween-80 100 % of control | dose: 6.6 mg/kg/injection, schedule: Q04DX003 (ip), vehicle: saline with Tween-80 100 % of control | dose: 10.0 mg/kg/injection, schedule: Q04DX003 (ip), vehicle: saline with Tween-80 90 % of control | dose: 15.0 mg/kg/injection, schedule: Q04DX003 (ip), vehicle: saline with Tween-80 104 % of control

CC1=C(C)CN2CC(C#N)=C(N)C2C1 (configuration not stated)
inactive: dose: 50.0 mg/kg/injection, schedule: Q01DX005 (ip), vehicle: saline with Tween-80 107 % of control | dose: 100.0 mg/kg/injection, schedule: Q01DX005 (ip), vehicle: saline with Tween-80 96 % of control | dose: 200.0 mg/kg/injection, schedule: Q01DX005 (ip), vehicle: saline with Tween-80 96 % of control

O=C1C(Cl)OC(c2ccccc2)=NN1c1ccccc1 (configuration not stated)
inactive: dose: 50.0 mg/kg/injection, schedule: Q01DX005 (ip), vehicle: distilled water + alcohol 97 % of control | dose: 100.0 mg/kg/injection, schedule: Q01DX005 (ip), vehicle: distilled water + alcohol 107 % of control | dose: 200.0 mg/kg/injection, schedule: Q01DX005 (ip), vehicle: distilled water + alcohol 97 % of control

COc1cccc(-c2nnc(-c3nc[nH]c3C)[nH]c2=O)c1
inactive: [13] 93 % of control | [14] 91 % of control | [15] 91 % of control

CN(C)P(=O)(OCC12C=C(OP(=O)(N(C)C)N(C)C)CC1(COP(=O)(N(C)C)N(C)C)C1CCC2C1)N(C)C (configuration not stated)
inactive: [12] 101 % of control | dose: 120.0 mg/kg/injection, schedule: Q01DX005 (ip), vehicle: saline 98 % of control | dose: 240.0 mg/kg/injection, schedule: Q01DX005 (ip), vehicle: saline 102 % of control

CCP(=S)(CC)[S][Sn]([CH3])([CH3])[S]P(=S)(CC)CC
inactive: [1] 118 % of control | [2] 115 % of control

Cc1ccc(C2=C(C#N)C(c3ccccc3)C(C#N)=C(N)O2)cc1 (configuration not stated)
inactive: [1] 97 % of control | [2] 95 % of control

C/C(=C\COc1ccc2ccc(=O)oc2c1)C1=CC(=O)C(C)(C)O1
inactive: dose: 266.0 mg/kg/injection, schedule: Q01DX009 (ip), vehicle: saline with Tween-80 115 % of control | [11] 114 % of control | dose: 600.0 mg/kg/injection, schedule: Q01DX009 (ip), vehicle: saline with Tween-80 123 % of control

CC1(C)C(=O)C=C[C@]2(C)[C@H]3CC[C@]4(C)C(=CC[C@H]4c4ccoc4)[C@]3(C)[C@H](O)C[C@@H]12
inactive: dose: 7.81 mg/kg/injection, schedule: Q01DX005 (ip), vehicle: Klucel (hydroxypropylcellulose) (HPC) 98 % of control | dose: 15.63 mg/kg/injection, schedule: Q01DX005 (ip), vehicle: Klucel (hydroxypropylcellulose) (HPC) 98 % of control | dose: 31.25 mg/kg/injection, schedule: Q01DX005 (ip), vehicle: Klucel (hydroxypropylcellulose) (HPC) 95 % of control | dose: 62.5 mg/kg/injection, schedule: Q01DX005 (ip), vehicle: Klucel (hydroxypropylcellulose) (HPC) 95 % of control | dose: 125.0 mg/kg/injection, schedule: Q01DX005 (ip), vehicle: Klucel (hydroxypropylcellulose) (HPC) 93 % of control

CN1C2CCC1C(C(=O)O)C(O)C2 (configuration not stated)
inactive: [13] 101 % of control | [14] 96 % of control | [15] 92 % of control

C=C1C(=O)O[C@@H]2/C=C(\C)CC/C=C(/COC(C)=O)C[C@@H](OC(C)=O)[C@@H]12
inactive: [6] 97 % of control | dose: 9.0 mg/kg/injection, schedule: Q01DX009 (ip), vehicle: acetone 106 % of control | [7] 103 % of control | dose: 18.0 mg/kg/injection, schedule: Q01DX009 (ip), vehicle: acetone 106 % of control | [8] 106 % of control | dose: 36.0 mg/kg/injection, schedule: Q01DX009 (ip), vehicle: acetone 109 % of control | dose: 72.0 mg/kg/injection, schedule: Q01DX009 (ip), vehicle: acetone 124 % of control

O=C1C(=O)c2c(ccc3ccccc23)-c2ccccc21
inactive: [1] 100 % of control | dose: 50.0 mg/kg/injection, schedule: Q01DX009 (ip), vehicle: Klucel (hydroxypropylcellulose) (HPC) 104 % of control | [2] 97 % of control | dose: 100.0 mg/kg/injection, schedule: Q01DX009 (ip), vehicle: Klucel (hydroxypropylcellulose) (HPC) 100 % of control | [3] 104 % of control | dose: 200.0 mg/kg/injection, schedule: Q01DX009 (ip), vehicle: Klucel (hydroxypropylcellulose) (HPC) 86 % of control | dose: 400.0 mg/kg/injection, schedule: Q01DX009 (ip), vehicle: Klucel (hydroxypropylcellulose) (HPC) 94 % of control
